Laboratory results from patent US12157741B2, “Macrocyclic inhibitors of DYRK1A” (DANA-FARBER CANCER INSTITUTE, INC., priority 2018, dated 2024).
Where two headings read alike, the source gives them in different places.

Columns and labels:
Format in all cases: binding
[1] = biological target: various enzymes (Homo sapiens, UniProt O00329); settings: compound 1 uM
Procedure: (§1) Ambit profiling was conducted in accordance with the manufacturer's instructions.

[2] = biological target: various enzymes (Homo sapiens, UniProt P00519, T315I)
Procedure: as §1

[3] = biological target: various enzymes (Homo sapiens, UniProt P07949, M918T)
Procedure: as §1

[4] = biological target: various enzymes (Homo sapiens, UniProt P08922); settings: compound 1 uM
Procedure: as §1

[5] = biological target: various enzymes (Homo sapiens, UniProt P10721); settings: compound 1 uM
various enzymes (Homo sapiens, UniProt P10721), sequence (P10721 26-976): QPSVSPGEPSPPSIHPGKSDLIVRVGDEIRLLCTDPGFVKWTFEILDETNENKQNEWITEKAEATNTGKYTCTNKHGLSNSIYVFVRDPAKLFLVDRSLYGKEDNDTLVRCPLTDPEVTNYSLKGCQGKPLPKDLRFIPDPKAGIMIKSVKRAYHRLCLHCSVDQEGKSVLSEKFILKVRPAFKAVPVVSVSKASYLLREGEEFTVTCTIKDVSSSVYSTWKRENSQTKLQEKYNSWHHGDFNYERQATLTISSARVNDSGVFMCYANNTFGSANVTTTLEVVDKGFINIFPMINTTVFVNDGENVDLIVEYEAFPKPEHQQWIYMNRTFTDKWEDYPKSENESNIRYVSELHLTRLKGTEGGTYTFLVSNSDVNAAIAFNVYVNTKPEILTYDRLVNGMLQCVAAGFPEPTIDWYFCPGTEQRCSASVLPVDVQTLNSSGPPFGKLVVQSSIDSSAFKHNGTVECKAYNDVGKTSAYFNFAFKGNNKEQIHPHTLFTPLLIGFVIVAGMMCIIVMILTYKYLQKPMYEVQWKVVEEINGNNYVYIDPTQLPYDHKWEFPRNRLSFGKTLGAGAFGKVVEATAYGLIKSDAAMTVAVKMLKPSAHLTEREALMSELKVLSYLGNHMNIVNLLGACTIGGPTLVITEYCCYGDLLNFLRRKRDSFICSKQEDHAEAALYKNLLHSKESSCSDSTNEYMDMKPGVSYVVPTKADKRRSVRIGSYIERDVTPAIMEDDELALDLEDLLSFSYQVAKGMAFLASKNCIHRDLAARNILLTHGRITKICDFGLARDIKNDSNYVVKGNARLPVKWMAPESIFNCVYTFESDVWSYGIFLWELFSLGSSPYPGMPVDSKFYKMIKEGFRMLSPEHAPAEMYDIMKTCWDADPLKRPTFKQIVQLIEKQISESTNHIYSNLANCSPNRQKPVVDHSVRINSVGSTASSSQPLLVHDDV
Procedure: as §1

[6] = biological target: various enzymes (Homo sapiens, UniProt P15056, V600E)
Procedure: as §1

[7] = biological target: various enzymes (Homo sapiens, UniProt P16591); settings: compound 1 uM
Procedure: as §1

[8] = biological target: various enzymes (Homo sapiens, UniProt P21802); settings: compound 1 uM
various enzymes (Homo sapiens, UniProt P21802), sequence (P21802 22-821): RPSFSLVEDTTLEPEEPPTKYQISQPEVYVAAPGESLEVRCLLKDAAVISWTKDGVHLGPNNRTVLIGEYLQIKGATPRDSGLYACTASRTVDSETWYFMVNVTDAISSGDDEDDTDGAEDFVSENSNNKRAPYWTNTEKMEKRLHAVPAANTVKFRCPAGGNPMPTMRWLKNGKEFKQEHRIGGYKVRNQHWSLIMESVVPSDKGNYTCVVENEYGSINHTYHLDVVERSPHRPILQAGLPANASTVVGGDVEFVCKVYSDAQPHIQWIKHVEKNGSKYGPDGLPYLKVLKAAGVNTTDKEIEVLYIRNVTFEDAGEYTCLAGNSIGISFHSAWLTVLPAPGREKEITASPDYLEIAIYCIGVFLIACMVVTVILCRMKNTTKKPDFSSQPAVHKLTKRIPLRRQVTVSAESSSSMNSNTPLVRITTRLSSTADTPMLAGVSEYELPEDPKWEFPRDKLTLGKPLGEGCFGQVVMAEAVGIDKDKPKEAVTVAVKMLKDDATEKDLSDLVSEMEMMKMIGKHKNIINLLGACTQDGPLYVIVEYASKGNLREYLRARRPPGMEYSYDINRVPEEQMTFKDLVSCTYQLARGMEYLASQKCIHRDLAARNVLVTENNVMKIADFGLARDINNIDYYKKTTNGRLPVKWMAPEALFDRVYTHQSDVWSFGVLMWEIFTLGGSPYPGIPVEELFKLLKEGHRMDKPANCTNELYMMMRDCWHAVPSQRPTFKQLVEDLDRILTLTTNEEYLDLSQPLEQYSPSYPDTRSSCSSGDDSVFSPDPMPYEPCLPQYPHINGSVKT
Procedure: as §1

[9] = biological target: various enzymes (Homo sapiens, UniProt P24723); settings: compound 1 uM
Procedure: as §1

[10] = biological target: various enzymes (Homo sapiens, UniProt P33981); settings: compound 1 uM
Procedure: as §1

[11] = biological target: T1, various enzymes (Homo sapiens, UniProt P36888, F691L, form not given)
T1 construct: other: FLT3(ITD, F691L); 1 uM; other: compound 1 uM
Procedure: as §1

[12] = biological target: various enzymes (Homo sapiens, UniProt P37173); settings: compound 1 uM
Procedure: as §1

[13] = biological target: various enzymes (Homo sapiens, UniProt P42338); settings: compound 1 uM
Procedure: as §1

[14] = biological target: various enzymes (Homo sapiens, UniProt P50613); settings: compound 1 uM
Procedure: as §1

[15] = biological target: various enzymes (Homo sapiens, UniProt P51812); settings: compound 1 uM
various enzymes (Homo sapiens, UniProt P51812), sequence (P51812 whole entry): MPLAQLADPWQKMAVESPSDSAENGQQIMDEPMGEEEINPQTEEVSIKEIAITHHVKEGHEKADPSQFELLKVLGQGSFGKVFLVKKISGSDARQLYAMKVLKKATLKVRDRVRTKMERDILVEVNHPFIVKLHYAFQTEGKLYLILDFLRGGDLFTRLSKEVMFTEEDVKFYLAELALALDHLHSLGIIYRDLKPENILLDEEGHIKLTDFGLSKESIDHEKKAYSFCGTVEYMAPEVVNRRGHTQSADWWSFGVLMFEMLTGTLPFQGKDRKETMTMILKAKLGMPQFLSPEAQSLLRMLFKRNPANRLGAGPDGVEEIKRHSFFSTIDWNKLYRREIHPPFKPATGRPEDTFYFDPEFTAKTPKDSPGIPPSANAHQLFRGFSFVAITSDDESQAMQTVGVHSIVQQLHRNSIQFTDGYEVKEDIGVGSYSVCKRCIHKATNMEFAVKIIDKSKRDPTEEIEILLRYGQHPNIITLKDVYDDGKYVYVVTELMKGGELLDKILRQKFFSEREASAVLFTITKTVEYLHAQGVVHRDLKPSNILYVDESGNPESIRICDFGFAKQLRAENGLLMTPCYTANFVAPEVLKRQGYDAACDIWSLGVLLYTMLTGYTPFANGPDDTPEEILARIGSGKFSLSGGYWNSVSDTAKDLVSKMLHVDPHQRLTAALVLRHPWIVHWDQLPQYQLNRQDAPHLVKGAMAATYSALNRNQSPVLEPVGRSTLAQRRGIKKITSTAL
Procedure: as §1

[16] = biological target: various enzymes (Homo sapiens, UniProt P53779); settings: compound 1 uM
Procedure: as §1

[17] = biological target: various enzymes (Homo sapiens, UniProt P80192); settings: compound 1 uM
Procedure: as §1

[18] = biological target: various enzymes (Homo sapiens, UniProt Q07002); settings: compound 1 uM
Procedure: as §1

[19] = biological target: various enzymes (Homo sapiens, UniProt Q12851); settings: compound 1 uM
Procedure: as §1

[20] = biological target: various enzymes (Homo sapiens, UniProt Q13163); settings: compound 1 uM
Procedure: as §1

[21] = biological target: various enzymes (Homo sapiens, UniProt Q13237); settings: compound 1 uM
various enzymes (Homo sapiens, UniProt Q13237), sequence (Q13237 whole entry): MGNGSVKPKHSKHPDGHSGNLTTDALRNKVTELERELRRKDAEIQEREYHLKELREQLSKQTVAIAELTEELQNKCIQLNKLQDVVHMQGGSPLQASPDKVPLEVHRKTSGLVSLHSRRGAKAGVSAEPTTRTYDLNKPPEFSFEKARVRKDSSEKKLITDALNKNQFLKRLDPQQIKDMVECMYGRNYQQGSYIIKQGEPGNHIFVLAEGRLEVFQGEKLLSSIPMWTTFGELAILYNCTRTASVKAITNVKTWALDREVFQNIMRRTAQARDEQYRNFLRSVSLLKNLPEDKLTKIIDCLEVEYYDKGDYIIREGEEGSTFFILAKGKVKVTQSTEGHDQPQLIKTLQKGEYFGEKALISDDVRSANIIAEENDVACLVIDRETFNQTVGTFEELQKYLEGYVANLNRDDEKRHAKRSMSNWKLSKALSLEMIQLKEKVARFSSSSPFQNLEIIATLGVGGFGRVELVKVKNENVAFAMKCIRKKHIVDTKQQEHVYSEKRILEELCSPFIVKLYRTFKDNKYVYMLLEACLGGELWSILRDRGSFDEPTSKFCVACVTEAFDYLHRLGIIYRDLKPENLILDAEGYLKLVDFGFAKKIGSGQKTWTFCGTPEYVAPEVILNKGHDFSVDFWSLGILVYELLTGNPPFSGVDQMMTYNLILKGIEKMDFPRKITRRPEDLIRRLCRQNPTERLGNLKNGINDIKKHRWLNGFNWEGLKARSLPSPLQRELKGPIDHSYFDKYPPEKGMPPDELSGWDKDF
Procedure: as §1

[22] = biological target: various enzymes (Homo sapiens, UniProt Q13554); settings: compound 1 uM
Procedure: as §1

[23] = biological target: various enzymes (Homo sapiens, UniProt Q15831); settings: compound 1 uM
Procedure: as §1

[24] = biological target: various enzymes (Homo sapiens, UniProt Q16513); settings: compound 1 uM
various enzymes (Homo sapiens, UniProt Q16513), sequence (Q16513 whole entry): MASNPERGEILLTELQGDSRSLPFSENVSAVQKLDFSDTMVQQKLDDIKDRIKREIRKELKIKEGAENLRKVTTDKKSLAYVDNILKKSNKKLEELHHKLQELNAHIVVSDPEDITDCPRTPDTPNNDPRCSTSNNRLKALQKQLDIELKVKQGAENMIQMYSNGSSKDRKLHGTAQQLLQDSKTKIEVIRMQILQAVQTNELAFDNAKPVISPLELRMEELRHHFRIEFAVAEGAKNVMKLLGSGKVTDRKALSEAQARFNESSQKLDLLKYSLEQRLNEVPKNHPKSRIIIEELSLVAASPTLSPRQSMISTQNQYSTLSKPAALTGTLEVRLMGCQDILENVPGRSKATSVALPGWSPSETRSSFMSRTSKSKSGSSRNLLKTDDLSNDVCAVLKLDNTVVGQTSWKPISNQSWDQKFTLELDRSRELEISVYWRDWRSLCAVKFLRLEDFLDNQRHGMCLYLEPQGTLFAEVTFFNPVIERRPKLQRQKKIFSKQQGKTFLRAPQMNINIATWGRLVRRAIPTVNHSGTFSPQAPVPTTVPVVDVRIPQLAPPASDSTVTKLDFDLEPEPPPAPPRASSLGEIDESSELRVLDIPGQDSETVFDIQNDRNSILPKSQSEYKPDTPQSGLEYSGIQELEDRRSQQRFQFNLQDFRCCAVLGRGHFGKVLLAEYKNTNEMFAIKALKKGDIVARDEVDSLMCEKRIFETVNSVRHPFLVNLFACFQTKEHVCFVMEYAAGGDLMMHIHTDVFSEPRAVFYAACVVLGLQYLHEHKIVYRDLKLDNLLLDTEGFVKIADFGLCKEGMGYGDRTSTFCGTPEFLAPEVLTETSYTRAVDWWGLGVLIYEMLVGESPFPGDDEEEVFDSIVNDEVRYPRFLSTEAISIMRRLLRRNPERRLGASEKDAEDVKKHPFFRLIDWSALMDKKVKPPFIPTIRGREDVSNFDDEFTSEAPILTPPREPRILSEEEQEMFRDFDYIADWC
Procedure: as §1

[25] = biological target: various enzymes (Homo sapiens, UniProt Q16832); settings: compound 1 uM
Procedure: as §1

[26] = biological target: various enzymes (Homo sapiens, UniProt Q6P3R8); settings: compound 1 uM
Procedure: as §1

[27] = biological target: various enzymes (Homo sapiens, UniProt Q7L7X3); settings: compound 1 uM
Procedure: as §1

[28] = biological target: various enzymes (Homo sapiens, UniProt Q8IW41); settings: compound 1 uM
Procedure: as §1

[29] = biological target: various enzymes (Homo sapiens, UniProt Q8TF76); settings: compound 1 uM
Procedure: as §1

[30] = biological target: various enzymes (Homo sapiens, UniProt Q96BR1); settings: compound 1 uM
Procedure: as §1

[31] = biological target: various enzymes (Homo sapiens, UniProt Q96D53); settings: compound 1 uM
Procedure: as §1

[32] = biological target: various enzymes (Homo sapiens, UniProt Q96NX5); settings: compound 1 uM
Procedure: as §1

[33] = biological target: various enzymes (Homo sapiens, UniProt Q9BRS2); settings: compound 1 uM
Procedure: as §1

[34] = biological target: various enzymes (Homo sapiens, UniProt Q9H3Y6); settings: compound 1 uM
various enzymes (Homo sapiens, UniProt Q9H3Y6), sequence (Q9H3Y6 whole entry): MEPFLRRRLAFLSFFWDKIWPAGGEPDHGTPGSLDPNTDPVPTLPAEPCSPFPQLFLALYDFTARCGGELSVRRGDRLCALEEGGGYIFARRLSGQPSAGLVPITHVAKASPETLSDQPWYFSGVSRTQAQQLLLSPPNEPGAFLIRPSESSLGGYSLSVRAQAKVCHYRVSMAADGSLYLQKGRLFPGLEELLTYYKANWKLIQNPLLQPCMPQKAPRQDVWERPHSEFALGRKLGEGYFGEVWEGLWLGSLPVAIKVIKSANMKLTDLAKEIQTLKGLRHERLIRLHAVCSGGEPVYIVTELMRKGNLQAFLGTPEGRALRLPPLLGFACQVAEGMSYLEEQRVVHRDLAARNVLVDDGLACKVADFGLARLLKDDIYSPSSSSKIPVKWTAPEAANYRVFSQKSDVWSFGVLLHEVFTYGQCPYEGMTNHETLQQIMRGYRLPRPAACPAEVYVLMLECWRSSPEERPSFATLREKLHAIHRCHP
Procedure: as §1

[35] = biological target: various enzymes (Homo sapiens, UniProt Q9P289); settings: compound 1 uM
Procedure: as §1

[36] = biological target: various enzymes (Homo sapiens, UniProt Q9UQB9); settings: compound 1 uM
various enzymes (Homo sapiens, UniProt Q9UQB9), sequence (Q9UQB9 whole entry): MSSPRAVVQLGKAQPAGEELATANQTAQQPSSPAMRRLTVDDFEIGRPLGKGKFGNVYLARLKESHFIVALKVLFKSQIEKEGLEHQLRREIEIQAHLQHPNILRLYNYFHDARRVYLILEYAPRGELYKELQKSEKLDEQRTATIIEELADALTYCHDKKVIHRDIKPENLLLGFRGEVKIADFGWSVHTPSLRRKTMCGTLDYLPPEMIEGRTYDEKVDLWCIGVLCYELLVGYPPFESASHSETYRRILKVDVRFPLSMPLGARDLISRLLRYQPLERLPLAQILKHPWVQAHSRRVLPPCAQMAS
Procedure: as §1

[37] = biological target: various enzymes (Homo sapiens, UniProt Q9Y3S1); settings: compound 1 uM
Procedure: as §1

[38] = biological target: various enzymes (Homo sapiens, UniProt Q9Y6M4); settings: compound 1 uM
Procedure: as §1

[39] = biological target: various enzymes (Mycobacterium tuberculosis, UniProt P9WI81); settings: compound 1 uM
Procedure: as §1

## CC(C)N1Cc2nn(C)cc2-c2cnc3[nH]cc(c3c2)-c2cn(nc2C(F)(F)F)CCCC1=O [Compound 45, (Z)-5-isopropyl-31-methyl-13-(trifluoromethyl)-11H,21H,31H-5-aza-2(3,5)-pyrrolo[2,3-b]pyridina-1(4,1),3(4,3)-dipyrazolacyclononaphan-6-one]
[1]
  Ambit profiling: PIK3CD: 92
[2]; compound 1 uM
  Ambit profiling: ABL1(T315I)-nonphosphorylated: 9.4
  Ambit profiling: ABL1(T315I)-phosphorylated: 11
[3]; compound 1 uM
  Ambit profiling: RET(M918T): 0.2
[4]
  Ambit profiling: ROS1: 11
[5]
  Ambit profiling: KIT: 6.5
  Ambit profiling: KIT-autoinhibited: 69
[6]; compound 1 uM
  Ambit profiling: BRAF(V600E): 100
[7]
  Ambit profiling: FER: 49
[8]
  Ambit profiling: FGFR2: 9.5
[9]
  Ambit profiling: PRKCH: 100
[10]
  Ambit profiling: TTK: 20
[11]; compound 1 uM
  Ambit profiling: FLT3(ITD, F691L): 0
[12]
  Ambit profiling: TGFBR2: 91
[13]
  Ambit profiling: PIK3CB: 100
[14]
  Ambit profiling: CDK7: 13
[15]
  Ambit profiling: RSK2(Kin.Dom.1-N-terminal): 0.9
  Ambit profiling: RSK2(Kin.Dom.2-C-terminal): 100
[16]
  Ambit profiling: JNK3: 29
[17]
  Ambit profiling: MLK1: 46
[18]
  Ambit profiling: PCTK3: 30
[19]
  Ambit profiling: MAP4K2: 3.9
[20]
  Ambit profiling: MEK5: 11
[21]
  Ambit profiling: PRKG2: 100
[22]
  Ambit profiling: CAMK2B: 65
[23]
  Ambit profiling: LKB1: 100
[24]
  Ambit profiling: PKN2: 100
[25]
  Ambit profiling: DDR2: 13
[26]
  Ambit profiling: NEK5: 100
[27]
  Ambit profiling: TAOK1: 8.8
[28]
  Ambit profiling: MAPKAPK5: 100
[29]
  Ambit profiling: HASPIN: 2.3
[30]
  Ambit profiling: SGK3: 30
[31]
  Ambit profiling: ADCK4: 3.9
[32]
  Ambit profiling: CAMK1G: 88
[33]
  Ambit profiling: RICK1: 1.4
[34]
  Ambit profiling: SRMS: 69
[35]
  Ambit profiling: MST4: 24
[36]
  Ambit profiling: AURKC: 20
[37]
  Ambit profiling: WNK2: 64
[38]
  Ambit profiling: CSNK1G3: 100
[39]
  Ambit profiling: PKNB(M. tuberculosis): 7

## COc1c2c(nn1C)CN(C(C)C)C(=O)CCCn1cc(c(C(F)(F)F)n1)-c1c[nH]c3ncc-2cc13 [Compound 50, (Z)-5-isopropyl-35-methoxy-31-methyl-13-(trifluoromethyl)-11H,21H,31H-5-aza-2(3,5)-pyrrolo[2,3-b]pyridina-1(4,1),3(4,3)-dipyrazolacyclononaphan-6-one]
[1]
  Ambit profiling: PIK3CD: 94
[2]
  Ambit profiling: ABLT(T315I)-nonphosphorylated: 8.8
  Ambit profiling: ABLT(T315I)-phosphorylated: 4.9
[3]
  Ambit profiling: RET(M918T): 0.25
[4]
  Ambit profiling: ROS1: 5.1
[5]
  Ambit profiling: KIT: 2.9
  Ambit profiling: KIT-autoinhibited: 76
[6]
  Ambit profiling: BRAF(V600E): 93
[7]
  Ambit profiling: FER: 10
[8]
  Ambit profiling: FGFR2: 11
[9]
  Ambit profiling: PRKCH: 85
[10]
  Ambit profiling: TTK: 23
[11]
  Ambit profiling: FLT3(ITD, F691L): 0
[12]
  Ambit profiling: TGFBR2: 20
[13]
  Ambit profiling: PIK3CB: 100
[14]
  Ambit profiling: CDK7: 6
[15]
  Ambit profiling: RSK2(Kin.Dom.1-N-terminal): 1.2
  Ambit profiling: RSK2(Kin.Dom.2-C-terminal): 100
[16]
  Ambit profiling: JNK3: 8.8
[17]
  Ambit profiling: MLK1: 28
[18]
  Ambit profiling: PCTK3: 69
[19]
  Ambit profiling: MAP4K2: 44
[20]
  Ambit profiling: MEK5: 0
[21]
  Ambit profiling: PRKG2: 87
[22]
  Ambit profiling: CAMK2B: 46
[23]
  Ambit profiling: LKB1: 33
[24]
  Ambit profiling: PKN2: 100
[25]
  Ambit profiling: DDR2: 32
[26]
  Ambit profiling: NEK5: 64
[27]
  Ambit profiling: TAOK1: 82
[28]
  Ambit profiling: MAPKAPK5: 100
[29]
  Ambit profiling: HASPIN: 42
[30]
  Ambit profiling: SGK3: 50
[31]
  Ambit profiling: ADCK4: 7.7
[32]
  Ambit profiling: CAMK1G: 54
[33]
  Ambit profiling: RIOK1: 16
[34]
  Ambit profiling: SRMS: 81
[35]
  Ambit profiling: MST4: 60
[36]
  Ambit profiling: AURKC: 39
[37]
  Ambit profiling: WNK2: 46
[38]
  Ambit profiling: CSNK1G3: 79
[39]
  Ambit profiling: PKNB(M. tuberculosis): 36
